# Assay results as given in patent US9867825B2, “Pharmaceutical combination comprising binimetinib” (Novartis AG, priority 2012, dated 2018).
# What was measured:
# MEL-JUSO xenografts [1] = experiment: Compound A and Compound B efficacy in MEL-JUSO xenografts (NRAS mutant melanoma); type: in vivo; settings: oral
# Excerpt: The oncogenic drivers in a sizable fraction of melanomas are mutant alleles of NRAS that encode one of several variants at position Q61 in the protein. Similar to activated alleles of BRAF, these alleles encode constitutively activated forms of the protein that drive signaling through the MAPK pathway. One consequence of the activation of MAPK signaling is the elevation of cyclin D1 levels that help drive cell cycle progression. […] Based on these observations, the single agent and combination effects of Compound A, and the MEK1/2 inhibitor Compound B, on the in vivo proliferation of MEL-JUSO melanoma model, harboring mutant alleles of NRAS was studied. […] T/C % is defined as the mean change in tumor volume from the time of treatment initiation to the end of study. The % regression is calculated as 100×ΔT/Tinitial if ΔT<0. Complete regression is defined as non-palpable tumor.
# All treatments were well-tolerated by the animals with no significant body weight loss observed over the duration of the study (Table 5).
# [2] = tested on: MEL-JUSO melanoma cells with activated NRAS; experiment: BrdU uptake assay, MEL-JUSO; type: cell-based; settings: Homo sapiens
# Method: (§1) Three melanoma cell lines, MEL-JUSO, SK-MEL2 and Hs 944.T, which harbor the Q61X activating mutation of NRAS, were tested with Compound A and Compound B to measure their sensitivity to the inhibitors.
# [3] = tested on: Hs 944.T melanoma cells with activated NRAS; experiment: BrdU uptake assay, Hs 944.T; type: cell-based; settings: Hs 944.T cells
# Method: as §1
# Hs 944.T xenografts = experiment: Compound A efficacy in Hs 944.T xenografts in nude mice; type: in vivo, mouse; settings: for Change in body weight (%, mean ± SEM) / Change in tumor volume (mm^3, mean ± SEM) / Survival / T/C (%): oral
# MEL-JUSO xenografts [4] = experiment: Compound A efficacy in MEL-JUSO xenografts in SCID-beige mice; type: in vivo; settings: Compound A 150 mg/kg qd, oral
# [5] = tested on: SK-MEL2 melanoma cells with activated NRAS; experiment: BrdU uptake assay, SK-MEL2; type: cell-based; settings: Homo sapiens, SK-MEL-2
# Method: as §1
structure (smiles),measurement,setting,value
"CN(C)C(=O)c1cc2cnc(Nc3ccc(N4CCNCC4)cn3)nc2n1C1CCCC1 [Compound A, 7-Cyclopentyl-2-(5-piperazin-1-yl-pyridin-2-ylamino)-7H-pyrrolo[2,3-d]pyrimidine-6-carboxylic acid dimethylamide]","Change in body weight (%, mean ± SEM)",MEL-JUSO xenografts [1]; Compound A 75 mg/kg qd,−3.9 ± 1.5%
same,"Change in tumor volume (mm^3, mean ± SEM)",MEL-JUSO xenografts [1]; Compound A 75 mg/kg qd,236 ± 32 mm^3
same,Survival,MEL-JUSO xenografts [1]; Compound A 75 mg/kg qd,6/6
same,T/C (%),MEL-JUSO xenografts [1]; Compound A 75 mg/kg qd,47%
same,"Change in body weight (%, mean ± SEM)",MEL-JUSO xenografts [1]; Compound A 150 mg/kg qd,−3.9 ± 2.1%
same,"Change in tumor volume (mm^3, mean ± SEM)",MEL-JUSO xenografts [1]; Compound A 150 mg/kg qd,157 ± 33 mm^3
same,Survival,MEL-JUSO xenografts [1]; Compound A 150 mg/kg qd,6/6
same,T/C (%),MEL-JUSO xenografts [1]; Compound A 150 mg/kg qd,32%
same,"Change in body weight (%, mean ± SEM)",MEL-JUSO xenografts [1]; Compound A 250 mg/kg qd,−2.7 ± 1.6%
same,"Change in tumor volume (mm^3, mean ± SEM)",MEL-JUSO xenografts [1]; Compound A 250 mg/kg qd,9 ± 11 mm^3
same,Survival,MEL-JUSO xenografts [1]; Compound A 250 mg/kg qd,6/6
same,T/C (%),MEL-JUSO xenografts [1]; Compound A 250 mg/kg qd,2%
same,IC50,[2],360 nM
same,IC50,[3],3830 nM
same,Animals classified as TR deaths due to body weight loss criteria,Hs 944.T xenografts; Compound A 150 mg/kg qd,"Three animals each from the 150 mg/kg and 250 mg/kg Compound A treatment groups were classified as TR deaths due to body weight loss criteria, and excluded from data analysis."
same,"Change in body weight (%, mean ± SEM)",Hs 944.T xenografts; Compound A 150 mg/kg qd,−12.7 ± 2.1%
same,"Change in tumor volume (mm^3, mean ± SEM)",Hs 944.T xenografts; Compound A 150 mg/kg qd,86 ± 17 mm^3
same,Survival,Hs 944.T xenografts; Compound A 150 mg/kg qd,5/8
same,T/C (%),Hs 944.T xenografts; Compound A 150 mg/kg qd,36%
same,Animals classified as TR deaths due to body weight loss criteria,Hs 944.T xenografts; Compound A 250 mg/kg qd,"Three animals each from the 150 mg/kg and 250 mg/kg Compound A treatment groups were classified as TR deaths due to body weight loss criteria, and excluded from data analysis."
same,"Change in body weight (%, mean ± SEM)",Hs 944.T xenografts; Compound A 250 mg/kg qd,−19.7 ± 0.6%
same,"Change in tumor volume (mm^3, mean ± SEM)",Hs 944.T xenografts; Compound A 250 mg/kg qd,45 ± 25 mm^3
same,Survival,Hs 944.T xenografts; Compound A 250 mg/kg qd,5/8
same,T/C (%),Hs 944.T xenografts; Compound A 250 mg/kg qd,19%
same,"Change in body weight (%, mean ± SEM)",MEL-JUSO xenografts [4],−7.3 ± 1.2%
same,"Change in tumor volume (mm^3, mean ± SEM)",MEL-JUSO xenografts [4],−32 ± 14 mm^3
same,Survival,MEL-JUSO xenografts [4],6/6
same,IC50,[5],750 nM
"Cn1cnc2c(F)c(Nc3ccc(Br)cc3F)c(C(=O)NOCCO)cc21 [Compound B, 6-(4-bromo-2-fluorophenylamino)-7-fluoro-3-methyl-3H-benzoimidazole-5-carboxylic acid (2-hydroxyethyoxy)-amide]","Change in body weight (%, mean ± SEM)",MEL-JUSO xenografts [1]; Compound B 3.5 mg/kg bid,−0.3 ± 2.1%
same,"Change in tumor volume (mm^3, mean ± SEM)",MEL-JUSO xenografts [1]; Compound B 3.5 mg/kg bid,59 ± 24 mm^3
same,Survival,MEL-JUSO xenografts [1]; Compound B 3.5 mg/kg bid,6/6
same,T/C (%),MEL-JUSO xenografts [1]; Compound B 3.5 mg/kg bid,12%
same,"Change in body weight (%, mean ± SEM)",MEL-JUSO xenografts [1]; Compound B 10 mg/kg bid,5.1 ± 1.1%
same,"Change in tumor volume (mm^3, mean ± SEM)",MEL-JUSO xenografts [1]; Compound B 10 mg/kg bid,−47 ± 11 mm^3
same,Regression (%),MEL-JUSO xenografts [1]; Compound B 10 mg/kg bid,38%
same,Survival,MEL-JUSO xenografts [1]; Compound B 10 mg/kg bid,6/6
same,IC50,[2],24 nM
same,IC50,[3],554 nM
same,IC50,[5],990 nM
